# Data as given in US20020142993A1, “Pharmaceutically acceptable salts of bicyclic compounds” (DR. REDDY'S LABORATORIES LTD., priority 2000, published 2002).
# Structures can show the parent of a compound that is named as a salt.
# What was measured:
# Swiss albino mice = assay: Plasma triglyceride and total cholesterol lowering activity in Swiss albino mice and guinea pigs; format: in vivo, mouse; conditions: dose 3 mg/kg, oral, 6 days
# Protocol: c) Plasma Triglyceride and Total Cholesterol Lowering Activity in Swiss Albino Mice and Guinea Pigs
# Male Swiss albino mice (SAM) and male Guinea pigs were obtained from NIN and housed in DRF animal house. All these animals were maintained under 12 hour light and dark cycle at 25±1° C. Animals were given standard laboratory chow (NIN, Hyderabad, India) and water, ad libitum. SAM of 20-25 g body weight range and Guinea pigs of 500-700 g body weight range were used (Oliver, P., Plancke, M. O., Marzin, D., Clavey, V., Sauzieres, J and Fruchart, J. C. Effects of fenofibrate, gemfibrozil and nicotinic acid on plasma lipoprotein levels in normal and hyperlipidemic mice. Atherosclerosis. 1988. 70: 107-114).
# The test compounds were administered orally to Swiss albino mice at 0.3 to 30 mg/kg/day dose for 6 days. Control mice were treated with vehicle (0.25% Carboxymethylcellulose; dose 10 ml/kg). The test compounds were administered orally to Guinea pigs at 0.3 to 30 mg/kg/day dose for 6 days. Control animals were treated with vehicle (0.25% Carboxymethylcellulose; dose 5 ml/kg).
# The blood samples were collected in fed state 1 hour after drug administration on 0 and 6 day of treatment. The blood was collected from the retro-orbital sinus through heparinised capillary in EDTA containing tubes. After centrifugation, plasma sample was separated for triglyceride and total cholesterol (Wieland, O. Methods of Enzymatic analysis. Bergermeyer, H. O., Ed., 1963. 211-214; Trinder, P. Ann. Clin. Biochem. 1969. 6: 24-27). Measurement of plasma triglyceride, total cholesterol and HDL were done using commercial kits (Dr. Reddy's Diagnostic Division, Hyderabad, India).
# (§1) 1. Percent reduction in Blood sugar/triglycerides/total cholesterol were calculated according to the formula: [formula]
# hPPARγ1 = molecular target: T1, hPPARγ1 (Homo sapiens, UniProt P37231); assay: Determination of hPPARγ activity (GAL4-LBD luciferase reporter in HEK-293 cells); format: cell-based; conditions: 1 μM compound, transfected HEK-293 cells
# T1 construct: expressed in transfected cells; host or cells: HEK-293
# T1 sequence (P37231 238-503 limits assumed): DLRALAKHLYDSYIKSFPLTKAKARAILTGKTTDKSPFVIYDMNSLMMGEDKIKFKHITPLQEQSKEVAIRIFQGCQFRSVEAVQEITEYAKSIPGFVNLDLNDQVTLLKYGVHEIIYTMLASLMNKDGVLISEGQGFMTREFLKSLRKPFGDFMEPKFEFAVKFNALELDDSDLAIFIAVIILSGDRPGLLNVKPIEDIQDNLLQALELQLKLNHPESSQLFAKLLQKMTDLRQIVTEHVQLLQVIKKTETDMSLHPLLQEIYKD
# Protocol: b) Determination of hPPARγ Activity
# Ligand binding domain of hPPARγ1 was fused to DNA binding domain of Yeast transcription factor GAL4 in eucaryotic expression vector. Using lipofectamine (Gibco BRL, USA) as transfecting reagent HEK-293 cells were transfected with this plasmid and a reporter plasmid harboring the luciferase gene driven by a GAL4 specific promoter. Compound was added at 1 μM concentration after 48 hrs of transfection and incubated overnight. Luciferase activity as a function of drug binding/activation capacity of PPARγ1 was measured using Packard Luclite kit (Packard, USA) in Packard Top Count (Ivan Sadowski, Brendan Bell, Peter Broag and Melvyn Hollis. Gene. 1992. 118: 137-141; Guide to Eukaryotic Transfections with Cationic Lipid Reagents. Life Technologies, GIBCO BRL, USA).
# hPPARα = molecular target: T2, hPPARα (Homo sapiens, UniProt Q07869); assay: Determination of hPPARα activity (GAL4-LBD luciferase reporter in HEK-293 cells); format: cell-based; conditions: 50 μM compound, transfected HEK-293 cells
# T2 construct: expressed in transfected cells; host or cells: HEK-293
# T2 sequence (Q07869 239-466 limits assumed): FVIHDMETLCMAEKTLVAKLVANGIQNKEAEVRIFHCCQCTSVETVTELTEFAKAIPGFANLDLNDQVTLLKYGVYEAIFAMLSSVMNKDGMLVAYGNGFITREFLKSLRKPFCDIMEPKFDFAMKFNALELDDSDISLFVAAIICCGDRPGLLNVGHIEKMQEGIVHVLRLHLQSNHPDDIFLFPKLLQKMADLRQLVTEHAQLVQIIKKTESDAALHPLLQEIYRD
# Protocol: a) Determination of hPPARα Activity
# Ligand binding domain of hPPARα was fused to DNA binding domain of Yeast transcription factor GAL4 in eucaryotic expression vector. Using superfect (Qiagen, Germany) as transfecting reagent HEK-293 cells were transfected with this plasmid and a reporter plasmid harboring the luciferase gene driven by a GAL4 specific promoter. Compound was added at different concentrations after 42 hrs of transfection and incubated overnight. Luciferase activity as a function of compound binding/activation capacity of PPARα was measured using Packard Luclite kit (Packard, USA) in Top Count (Ivan Sadowski, Brendan Bell, Peter Broag and Melvyn Hollis. Gene. 1992. 118: 137 -141; Superfect Transfection Reagent Handbook. February 1997, Qiagen, Germany).
# C57BL/KsJ-db/db mice = assay: Blood sugar and triglyceride lowering in db/db mice; format: in vivo, mouse; conditions: dose 0.03 mg/kg, oral gavage daily for 6 days
# Source text: Mutation in colonies of laboratory animals and different sensitivities to dietary regimens have made the development of animal models with non-insulin dependent diabetes and hyperlipidemia associated with obesity and insulin resistance possible. Genetic models such as db/db and ob/ob (Diabetes, (1982)31(1): 1-6) mice and zucker fa/fa rats have been developed by the various laboratories for understanding the pathophysiology of disease and testing the efficacy of new antidiabetic compounds (Diabetes, (1983)32: 830-838; Annu. Rep. Sankyo Res. Lab. (1994).46:1-57). […]
# The random blood sugar and triglyceride levels were measured by collecting blood (100 μl) through orbital sinus, using heparinised capillary in tubes containing EDTA which was centrifuged to obtain plasma. The plasma glucose and triglyceride levels were measured spectrometrically, by glucose oxidase and glycerol 3 PO4 oxidase/peroxidase enzyme (Dr. Reddy's Lab. Diagnostic Division Kits, Hyderabad, India) methods respectively.
# The blood sugar and triglycerides lowering activities of the test compound was calculated according to the formula.
# as §1
# [1] = Single dose oral pharmacokinetic studies; format: in vivo; conditions: male Wistar rats, suspension in 0.25% sodium CMC
# Protocol: Single Dose Oral Pharmacokinetic Studies
# Male Wistar rats (220-250 gm) were used in the experiments. The animals were maintained under standard laboratory conditions and had free access to feed and water ad libitum. Before experimentation animals were fasted overnight (˜15 h) during which they had free access to water ad libitum.
# An amount equivalent to 30 mg of drug was weighed accurately and transferred into a clean mortar and triturated to obtain a fine powder. To this 0.5 ml of 0.25% sodium carboxy methyl cellulose (sodium CMC) was added to obtain a paste. To the obtained paste remaining 2.5 ml of sodium CMC was added to make up the volume to 3 ml. Based on the animal weight appropriate volume (body weight×3) of the prepared suspension was administered through oral gavage.
# After dosing, at designated time points (0.5, 1, 2, 3, 5, 8, 12 and 24 h) 200 μl of blood was collected from retro orbital plexus into 0.5 ml eppendorff tubes containing EDTA (10 μl of 200 mg/ml solution in Milli Q water). Blood was centrifuged at 12,800 rpm for 5 min and obtained plasma and stored at −20° C. till further analysis.
# 100 μl plasma was transferred into a clean and dry centrifuge tube. To this internal standard (10 μl of 100 μg/ml) was added and extracted with 2 ml of extraction recovery solvent. The contents were vortexed for 2 min, followed by centrifugation for 10 min at 2800 rpm. Clear organic layer (2×0.75 ml) was separated and dried under nitrogen gas at 50° C. The residue was reconstituted with 150 μl of mobile phase and vortexed for 20 sec, from this 50 μl was injected onto HPLC column.
# Pharmacokinetic parameters were calculated by non-compartmental model analysis. The peak plasma concentration (Cmax) and the corresponding time (Tmax) were directly obtained from the raw data. The area under the plasma concentration versus time curve up to the last quantifiable time point, AUC(0-t) was obtained by the linear and log-linear trapezoidal summation. The AUC(0-t) extrapolated to infinity (i.e., AUC(0-∞)) by adding the quotient of Clast/Kel, where Clast represents the last measurable time concentration and Kel represents the apparent terminal rate constant. Kel was calculated by the linear regression of the log-transformed concentrations of the drug in the terminal phase. The half-life of the terminal elimination phase was obtained using the relationship
Structure (SMILES),Triglyceride Lowering (%) (Swiss albino mice),PPARγ (luciferase activity) (hPPARγ1),PPARα (luciferase activity) (hPPARα),melting point [°C],also measured
"CCO[C@@H](Cc1ccc(OCCN2CCSc3ccccc32)cc1)C(=O)O [Example 5, -Lysine salt of (−)-3-[4-[2-(3,4-dihydro-2H-1,4-benzothiazin-4-yl)ethoxy]phenyl]-2-ethoxy propanoic acid]",46,7.6,3.5,,
"CCO[C@@H](Cc1ccc(OCCN2CCSc3ccccc32)cc1)C(=O)O (as salt: salt) [Example 3, Dicyclohexylamine salt of (−)-3-[4-[2-(3,4-dihydro-2H-1,4-benzothiazin-4-yl)ethoxy]phenyl]-2-ethoxy propanoic acid]",,,,110,
"CCO[C@@H](Cc1ccc(OCCN2CCSc3ccccc32)cc1)C(=O)O [Example 3, Dicyclohexylamine salt of (−)-3-[4-[2-(3,4-dihydro-2H-1,4-benzothiazin-4-yl)ethoxy]phenyl]-2-ethoxy propanoic acid]",,19,5.2,,
"CCO[C@@H](Cc1ccc(OCCN2CCSc3ccccc32)cc1)C(=O)O (as salt: salt) [Example 5, -Lysine salt of (−)-3-[4-[2-(3,4-dihydro-2H-1,4-benzothiazin-4-yl)ethoxy]phenyl]-2-ethoxy propanoic acid]",,,,142 to 144,
"CCOC(Cc1ccc(OCCN2CCSc3ccccc32)cc1)C(=O)O (stereo in doubt) [Example 4, (R)-(+)-Methyl benzylamine salt of (−)-3-[4-[2-(3,4-dihydro-2H-1,4-benzothiazin-4-yl)ethoxy]phenyl]-2-ethoxy propanoic acid]",55,,,,
CCO[C@@H](Cc1ccc(OCCN2CCSc3ccccc32)cc1)C(=O)O (as salt: salt) [Example 1],,,,126 to 128,
"CCO[C@@H](Cc1ccc(OCCN2CCSc3ccccc32)cc1)C(=O)O (as salt: salt) [Example 2, Metformin salt of (−)-3-[4-[2-(3,4-dihydro-2H-1,4-benzothiazin-4-yl)ethoxy]phenyl]-2-ethoxy propanoic acid]",,,,155 to 158,
CCO[C@@H](Cc1ccc(OCCN2CCSc3ccccc32)cc1)C(=O)O [Example 1],66,,,,
"CCO[C@@H](Cc1ccc(OCCN2CCSc3ccccc32)cc1)C(=O)O [Example 6, Amino guanidine hydrogen carbonate salt of (−)-3-[4-[2-(3,4-dihydro-2H-1,4-benzothiazin-4-yl)ethoxy]phenyl]-2-ethoxy propanoic acid]",,21,4.7,,
"CCO[C@@H](Cc1ccc(OCCN2CCSc3ccccc32)cc1)C(=O)O [Example 2, Metformin salt of (−)-3-[4-[2-(3,4-dihydro-2H-1,4-benzothiazin-4-yl)ethoxy]phenyl]-2-ethoxy propanoic acid]",55,9.8,3.0,,"Reduction in Blood Glucose Level (%) (C57BL/KsJ-db/db mice): 56%; Triglyceride Lowering (%) (C57BL/KsJ-db/db mice): 59%; Ke1 [1]: 0.17 ± 0.03 h⁻¹; AUC(0-inf) ([1]; rat, plasma, 30 mg/kg): 320 ± 36.2 µg·h/mL; AUC(0-t) ([1]; rat, plasma, 30 mg/kg): 315 ± 34.7 µg·h/mL; Cmax ([1]; rat, plasma, 30 mg/kg): 77.2 ± 24.1 µg/mL; Tmax ([1]; rat, plasma, 30 mg/kg): 0.63 ± 0.25 h; half-life ([1]; rat, plasma, 30 mg/kg): 4.25 ± 0.86 h"
